Experimental data from PubChem BioAssay (NCI).
Several values for one entry are separate records, joined by “and”; a condition that tells them apart may be missing. Equal values may be shown once.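 Interpolation was linear, between the two tested concentrations surrounding the appropriate level; five concentrations were tested over 48 hours in 96-well plates. Abbreviation: GI50, concentration required for 50% inhibition of growth. TGI is the concentration that stops growth completely.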

Columns and labels:
Assay in all cases: NCI-60 cell line screen, 48 h
786-0 renal = tested on: 786-0 renal
A498 renal = tested on: A498 renal
NCI-H23 lung = tested on: NCI-H23 lung
RXF 393 renal = tested on: RXF 393 renal
SF-539 CNS = tested on: SF-539 CNS
SNB-19 CNS = tested on: SNB-19 CNS
U251 CNS = tested on: U251 CNS
UACC-62 melanoma = tested on: UACC-62 melanoma
UO-31 renal = tested on: UO-31 renal
HOP-92 NSCLC = tested on: HOP-92 NSCLC

Compound	GI50 (786-0 renal)	TGI (786-0 renal)	GI50 (A498 renal)	TGI (A498 renal)	GI50 (NCI-H23 lung) [µM]	TGI (NCI-H23 lung) [µM]	GI50 (RXF 393 renal) [µM]	GI50 (SF-539 CNS) [µM]	TGI (SF-539 CNS) [µM]	GI50 (SNB-19 CNS) [µM]	TGI (SNB-19 CNS) [µM]	GI50 (U251 CNS) [µM]	TGI (U251 CNS) [µM]	GI50 (UACC-62 melanoma)	TGI (UACC-62 melanoma)	GI50 (UO-31 renal) [µM]	TGI (UO-31 renal) [µM]	TGI (RXF 393 renal) [µM]	TGI (HOP-92 NSCLC) [µM]	GI50 (HOP-92 NSCLC) [µM]
Oc1ccc(CN(Cc2ccc(C(F)(F)F)cc2)Cc2ccc(O)c3ncccc23)c2cccnc12	0.0394 µM	5.21 µM	0.0409 µM	97.5 µM	0.0245	> 100	0.0485	0.0465	> 64.1	0.0217	> 100	< 0.01	> 100	0.0395 µM	0.927 µM	0.0279	2.19	–	–	–
COc1ccc(-c2csc3c2-n2cccc2C3=O)cc1O	0.0977 µM	25.2 µM	1.13 µM	13.5 µM	0.056	> 42.4	–	0.0226	> 100	3.44	> 100	0.0332	> 47.4	0.387 µM	49.2 µM	0.401	50.6	–	–	–
CC(=O)O[C@H]1CC[C@@]2(C)C(=CC[C@@H]3C2CC[C@]2(C)Nc4[nH]ncc4CC32)C1 (stereo partly drawn)	–	> 100 µM	–	> 100 µM	–	> 100	–	–	40.4	–	–	–	30.7	–	57.1 µM	–	> 100	> 100	–	–
COc1cc2c(c(OC)c1OC)-c1ccc(SC)c(=O)cc1C(CC(=O)Oc1cccc(C#N)c1)C2 (stereo not drawn)	–	> 100 µM	–	0.522 µM	–	> 34.6	–	–	0.602	–	> 100	–	–	–	5.32 µM	–	> 100	–	> 100	–
COc1ccc2c(c1)CCCC1C3=NCCC3(C)CSC21 (stereo not drawn)	–	> 100 µM	–	–	–	> 100	–	–	> 100	–	> 100	–	> 100	–	> 100 µM	–	–	> 100	–	–
CCOC(=O)c1cnc2cc3cccccc3n2c1=O	–	> 100 µM	–	> 100 µM	–	> 100	–	–	> 100	–	> 100	–	> 100	–	> 100 µM	–	> 100	> 100	–	–
CO/N=C(/COc1c(-c2ccccc2)oc2ccccc2c1=O)c1ccc(F)cc1	25.1 µM	64 µM	61.2 µM	> 100 µM	> 100	> 100	76.6	85.6	> 100	–	–	33.9	> 100	96.1 µM	> 100 µM	> 100	> 100	> 100	–	–
COc1cc2c3c(n(CCCNCCNCCCN)c(=O)c2cc1OC)-c1cc2c(cc1C3=O)OCO2	3.24 µM	14.5 µM	–	–	2.73	10.9	13	8.55	23.6	5.73	31.2	0.0177	0.422	1.87 µM	8.18 µM	5.67	23.6	93.1	72.2	21
COc1cc2c3c(n(C)c(=O)c2cc1OC)-c1cc2c(cc1/C3=C/[C@H](N)CCCCN)OCO2	1.68 µM	18 µM	4.72 µM	22.7 µM	2.52	21.9	3.45	0.742	4.62	0.829	20.1	–	–	1.28 µM	6.33 µM	3.14	23	12.7	> 50.9	4.48
CCCCCCCCCCCCCCCCn1cc[n+](Cc2ccccc2)c1C	0.541 µM and 0.21 µM	1.87 µM and 0.621 µM	1.69 µM and 0.421 µM	3.94 µM and 1.8 µM	0.361	1.8	0.0122	1.67	4.36	0.565	2.01	–	–	0.577 µM and 0.232 µM	2.01 µM and 1.21 µM	1.49	2.99	0.341	–	–
CCCCCCN1CCN(Cc2ccc(N(CC)CC)cc2)C(=O)C1=O	4.88 µM	> 100 µM	0.973 µM	5.77 µM	4.05	62.5	–	2.57	8.23	4.08	> 100	3.99	62.3	3.54 µM	> 100 µM	5.22	> 100	–	38.2	4.21
COc1ccc(C(=O)CC(c2ccc(OC)c(OC)c2)c2c(O)c3ccccc3oc2=O)cc1OC (stereo not drawn)	–	> 100 µM	–	–	–	> 100	–	–	> 100	–	> 100	–	> 100	–	> 100 µM	–	> 100	> 100	> 100	–
OCc1ccc(Oc2c3ccccc3nc3occc23)cc1	33.9 µM	> 100 µM	–	–	17.9	40.3	4.7	28.9	71	39.8	> 100	27	56	20 µM	47.3 µM	77.2	> 100	23.2	–	–
NC(N)=N/N=C/c1c(-c2ccc(Cl)c([N+](=O)[O-])c2)nc2ccccn12	0.512 µM	1.9 µM	5.82 µM	14.4 µM	1.92	3.95	–	0.122	1.53	–	–	–	–	–	–	1.71	3.79	–	–	–
Cc1ccc(F)cc1NC(=O)c1cc(Cl)ccc1Nc1ccccc1	52.1 µM	> 100 µM	–	–	> 100	> 100	74.7	40.7	> 100	> 100	> 100	> 100	> 100	> 100 µM	> 100 µM	> 100	> 100	> 100	> 100	32
N/C(=N\c1nc2ccccc2s1)NC(=O)Nc1cccc2ccccc12	0.603 µM	> 94.8 µM	0.347 µM	3.72 µM	0.462	> 28.4	0.2	0.242	0.768	0.574	> 81.2	–	–	0.354 µM	> 95 µM	0.802	> 100	0.898	> 47.3	1.81
CN(CCN(C)C(=O)CCOS(C)(=O)=O)C(=O)CCOS(C)(=O)=O	–	> 100 µM	–	> 100 µM	–	> 100	–	–	> 100	–	> 100	–	> 100	–	> 100 µM	–	–	–	> 100	–

Compound	GI50 (786-0 renal)	TGI (786-0 renal)	GI50 (A498 renal)	TGI (A498 renal)	GI50 (NCI-H23 lung) [µM]	TGI (NCI-H23 lung) [µM]	GI50 (RXF 393 renal) [µM]	GI50 (SF-539 CNS) [µM]	TGI (SF-539 CNS) [µM]	GI50 (SNB-19 CNS) [µM]	TGI (SNB-19 CNS) [µM]	GI50 (U251 CNS) [µM]	TGI (U251 CNS) [µM]	GI50 (UACC-62 melanoma)	TGI (UACC-62 melanoma)	GI50 (UO-31 renal) [µM]	TGI (UO-31 renal) [µM]	TGI (RXF 393 renal) [µM]	TGI (HOP-92 NSCLC) [µM]	GI50 (HOP-92 NSCLC) [µM]
Cc1c(O)c(=O)ccn1CCO	–	> 100 µM	–	> 100 µM	–	–	–	–	–	–	> 100	–	> 100	–	> 100 µM	–	> 100	> 100	> 100	–
Cc1ccc(Oc2nc3ccccc3cc2-c2nnc(Cn3c(COc4ccccc4)nc4ccccc43)o2)cc1	3.09 µM	11.8 µM	0.409 µM	18.7 µM	4.66	20.7	2.71	–	–	3.78	17	1.58	3.62	5.62 µM	20.7 µM	1.19	10.2	10.6	5.37	1.27
CCOC(=O)C(=O)Nc1ccc(Cl)c(C(F)(F)F)c1	–	> 100 µM	–	–	–	> 100	–	–	> 100	–	> 100	–	> 100	–	> 100 µM	–	> 100	> 100	–	–
CC(=O)OC12CC(C)C3(O)C4C=C(C)C(=O)[C@@]4(O)CC(CO)=C[C@H]3C1C2(C)C (stereo partly drawn)	> 1000 µM	> 1000 µM	0.346 µM	–	> 1000	> 1000	–	> 1000	> 1000	> 1000	> 1000	> 1000	> 1000	–	> 1000 µM	> 1000	> 1000	–	> 1000	45.4
Cn1c(=O)oc2cc(C3CCC(=O)N3Cc3ccc(Cl)cc3)ccc21 (stereo not drawn)	–	> 100 µM	–	–	–	> 100	–	–	> 100	–	> 100	–	> 100	–	> 100 µM	–	> 100	> 100	–	–
CC(=O)NC1=C(NCc2ccc(Cl)cc2)C(=O)c2ccccc2C1=O	–	15.7 µM	–	–	–	13.5	–	–	10.5	–	> 50	–	24.2	–	8.61 µM	–	11.4	10.5	–	–
COc1ccccc1NC(=O)C1=C(C)NC(C)=C(C(=O)Nc2ccccc2OC)C1c1cccc2c1OCO2	–	> 100 µM	–	> 100 µM	–	> 100	–	–	> 100	–	> 100	–	> 100	–	> 100 µM	–	> 100	–	> 100	–
O=C(O)c1ccc(C2C3C=CC(C3)C2[N+](=O)[O-])cc1 (stereo not drawn)	–	> 100 µM	–	> 100 µM	–	> 100	–	–	> 100	–	> 100	–	> 100	–	> 100 µM	–	> 100	> 100	–	–
CCC[CH2][Sn]1([CH2]CCC)[O]C(=O)CN=Cc2ccccc2[O]1	0.517 µM	1.73 µM	–	–	0.136	0.333	0.144	1.3	> 100	0.222	0.556	0.305	1.09	0.197 µM	0.46 µM	0.512	1.77	0.306	0.519	0.182
Cc1cc(C)c2c(N)c3cccc(C)c3nc2n1	2.35 µM	8.47 µM	1.48 µM	3.11 µM	1.59	3.96	1.64	1.61	5.01	2.21	8.73	2.47	10.6	–	–	1.9	59.6	3.57	6.96	2.24
CC[C@@]1(O)C(=O)OCc2c1cc1n(c2=O)Cc2cc3c(NC(=O)CN)cccc3nc2-1	–	3 µM	–	3.27 µM	–	4.26	–	–	–	–	> 100	–	5.16	–	7.42 µM	–	3.55	0.354	> 100	–
COc1ccc(/C=C\c2cc(OC)c(OC)c(OC)c2)cc1OCC(=O)Nc1nc2ccc(OC(F)(F)F)cc2s1	54.3 µM	> 100 µM	3.61 µM	> 100 µM	4.39	> 100	–	2.28	6.13	7.08	> 100	3.37	> 100	5.11 µM	> 100 µM	4.37	> 100	–	45.1	2.74
O=C(CCCn1ccnc1[N+](=O)[O-])NCCn1ccnc1[N+](=O)[O-]	–	> 100 µM	–	–	–	> 100	–	–	> 100	–	> 100	–	> 100	–	> 100 µM	–	> 100	–	–	–
CC1(C)N[P+]2(Nc3ccccc3O2)OC1=O (stereo not drawn)	–	> 100 µM	–	> 100 µM	–	> 100	–	–	> 100	–	> 100	–	> 100	–	64 µM	–	> 100	> 100	–	–
CN(C)S(=O)(=O)c1ccc(Nc2ccc(O)c3c2C(=O)c2c([N+](=O)[O-])ccc(O)c2C3=O)cc1	–	> 100 µM	–	> 100 µM	–	> 100	–	–	–	–	> 100	–	> 100	–	> 100 µM	–	> 100	> 100	> 100	–
CCOC(=O)C1=C(c2ccccc2)N(c2ccc(OC)cc2)[C@]2(C#N)C(O)=C(Cl)C(Cl)=C(O)[C@]12C#N	21.8 µM	44.9 µM	35.8 µM	> 100 µM	17.7	33.1	17.4	24.5	56.3	20.5	42.1	22.5	52.5	–	–	24.6	68	31.5	23.3	0.545
O=[N+]([O-])c1cccc(-c2cc(-c3cc(Br)ccc3O)[nH]n2)c1	1.7 µM	4.08 µM	1.86 µM	8.63 µM	2.06	6.11	–	2.89	11	3.26	12.3	3.24	11.9	2.63 µM	11.7 µM	2.34	9.38	–	8.08	2.38
